Assay results from US20160310477A1, “CANCER TREATMENTS USING COMBINATIONS OF MEK TYPE 1 AND ERK INHIBITORS” (BIOMED VALLEY DISCOVERIES, INC., priority 2013, published 2016).

Tests used:
[1] = test system: MAPK signaling in HCT116 cells; test: Western blot of MAPK signaling markers; format: cell-based, human; conditions: HCT116, 4 hours, micromolar concentrations
Method: For Western blot studies, HCT116 cells (5×10^6) were seeded into 10 cm dishes in McCoy's 5A plus 10% FBS. […] Cells were allowed to adhere overnight prior to addition of the indicated amount of test compound (BVD-523) or vehicle control. Cells were treated for either 4 or 24 hours before isolation of whole-cell protein lysates, as specified below. Cells were harvested by trypsinisation, pelleted and snap frozen. Lysates were prepared with RIPA (Radio-Immunoprecipitation Assay) buffer, clarified by centrifugation and quantitated by bicinchoninic acid assay (BCA) assay. 20-50 μg of protein was resolved by SDS-PAGE electrophoresis, blotted onto PVDF membrane and probed using the antibodies detailed in Table 5 (for the 4-hour treatment) and Table 6 (for the 24-hour treatment) below. [table]

[2] = test system: MAPK signaling in A375 cells; test: Western blot of MAPK signaling, cell cycle and apoptosis markers; format: cell-based, human
[3] = test system: ERK; conditions: Morris et al., 2013; cited from earlier work

| SMILES | phosphorylation of ERK-dependent residues (T359/S363) in RSK 1 and 2 proteins [1] | cyclin-D1 level ([2]; 24 hours of treatment) | phosphorylation of ERK-dependent residues (T359/S363) in RSK 1 and 2 proteins ([2]; A375, 4 hours, micromolar concentrations) | Bim-EL level ([2]; A375, prolonged treatment) | apoptosis / PARP cleavage ([2]; A375, prolonged treatment) | MAPK feedback phosphatase DUSP6 level ([2]; BRAF mutant cell line, 24 hours of treatment) | autophosphorylation of ERK ([2]; FIG. 1 Western blot) | concentrations required to induce changes in substrate phosphorylation and effector targets of ERK ([2]; RAF and RAS mutant cancer cells, Western blot, 4 or 24 h) | autophosphorylation of ERK [3] |
| --- | --- | --- | --- | --- | --- | --- | --- | --- | --- |
| CC(C)Nc1cc(-c2c[nH]c(C(=O)N[C@H](CO)c3cccc(Cl)c3)c2)c(Cl)cn1 [BVD-523] | reduced | greatly reduced | reduced | increased | increased apoptosis was not observed | greatly reduced | allows for the autophosphorylation of ERK | low micromolar range |  |
| O=C(Nc1ccc2[nH]nc(-c3ccncc3)c2c1)[C@@H]1CCN(CC(=O)N2CCN(c3ccc(-c4ncccn4)cc3)CC2)C1 [SCH772984] |  |  |  |  |  |  |  |  | inhibits autophosphorylation of ERK |
